Reference: ChEMBL document CHEMBL1129578, “Tetrahydronaphthalenes: influence of heterocyclic substituents on inhibition of steroid enzymes P450 arom and P450 17” (J Med Chem, 1996)

Experiments:
[1] = target: T1, Steroid 17-alpha-hydroxylase/17,20 lyase (Rattus norvegicus, UniProt P11715)
T1 sequence (P11715 whole entry): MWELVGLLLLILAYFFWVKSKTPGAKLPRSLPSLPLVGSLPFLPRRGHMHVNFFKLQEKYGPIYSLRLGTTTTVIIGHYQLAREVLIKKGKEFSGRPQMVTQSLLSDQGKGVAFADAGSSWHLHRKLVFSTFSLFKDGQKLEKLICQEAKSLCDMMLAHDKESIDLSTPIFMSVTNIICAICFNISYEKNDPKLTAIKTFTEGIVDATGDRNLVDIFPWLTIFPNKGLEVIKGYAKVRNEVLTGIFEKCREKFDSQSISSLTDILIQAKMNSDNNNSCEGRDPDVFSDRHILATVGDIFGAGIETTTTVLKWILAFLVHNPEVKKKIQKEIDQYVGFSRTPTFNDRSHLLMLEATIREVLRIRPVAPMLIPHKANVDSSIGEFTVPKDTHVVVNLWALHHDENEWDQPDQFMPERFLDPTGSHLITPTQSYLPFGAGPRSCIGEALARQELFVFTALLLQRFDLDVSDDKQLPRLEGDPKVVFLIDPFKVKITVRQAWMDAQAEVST
Description: In vitro inhibitory activity against Steroidgenic Cytochrome P450 17 alpha using rat testicular microsomes.

[2] = target: T2, Cytochrome P450 11B2, mitochondrial (Homo sapiens, UniProt P19099); conditions: Adrenal gland
T2 sequence (P19099 whole entry): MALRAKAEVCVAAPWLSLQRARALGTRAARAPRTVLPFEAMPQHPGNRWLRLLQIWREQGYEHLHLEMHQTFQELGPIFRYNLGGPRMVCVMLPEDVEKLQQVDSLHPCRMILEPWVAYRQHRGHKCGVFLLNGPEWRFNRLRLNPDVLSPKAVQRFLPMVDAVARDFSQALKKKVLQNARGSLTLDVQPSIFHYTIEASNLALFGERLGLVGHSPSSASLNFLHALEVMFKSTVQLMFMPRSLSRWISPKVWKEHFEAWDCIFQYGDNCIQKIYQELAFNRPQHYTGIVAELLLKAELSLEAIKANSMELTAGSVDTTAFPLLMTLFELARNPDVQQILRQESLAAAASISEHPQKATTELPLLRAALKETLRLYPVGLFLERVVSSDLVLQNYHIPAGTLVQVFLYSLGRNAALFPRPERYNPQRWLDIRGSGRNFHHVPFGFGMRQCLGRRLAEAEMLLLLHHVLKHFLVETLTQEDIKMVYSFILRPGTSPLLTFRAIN
Description: Inhibitory activity against Steroidgenic Cytochrome P450 C18 using Bovine adrenal mitochondria

Question: c1ccc(C2C3CCc4ccccc4C32)cc1 (centres undefined) was tested. Which IC50 [1] did it give?
Answer: < 10 µM

Question: For O=C1c2ccccc2CCC1C(O)c1cnccn1 (centres undefined), which IC50 [1] is on record?
Answer: < 10 µM

Question: For O=C1/C(=C/c2cc[nH]n2)CCc2ccccc21, which IC50 [1] is on record?
Answer: < 10 µM

Question: With O=C1/C(=C/c2ccccn2)CCc2ccccc21 as the molecule, how does the IC50 [1] read?
Answer: < 10 µM

Question: For O=C1/C(=C/c2ccsc2)CCc2ccccc21, which IC50 [1] is on record?
Answer: < 10 µM

Question: With O=C1c2ccccc2CCC1C(O)c1ccnnc1 (centres undefined) as the molecule, how does the IC50 [1] read?
Answer: < 10 µM

Question: Which results are given for c1ccc2c(c1)CCC1C(c3ccsc3)C21 (centres undefined)?
Answer: IC50 [2]: < 10 µM; IC50 [1]: < 10 µM

Question: O=C1c2ccccc2CCC1C(O)c1cccnn1 (centres undefined) was tested. Which IC50 [1] did it give?
Answer: < 10 µM

Question: O=C1/C(=C/c2ccnnc2)CCc2ccccc21 was tested. Which IC50 [1] did it give?
Answer: < 10 µM

Question: How did the IC50 [1] turn out when O=C1/C(=C/c2ccncc2)CCc2ccccc21 was run?
Answer: 37 µM

Question: How did the IC50 [1] turn out when c1ccc2c(c1)CCC1C(c3ccncc3)C21 (centres undefined) was run?
Answer: 36 µM

Question: O=C1/C(=C/c2ccccc2)CCc2ccccc21 was tested. Which IC50 [1] did it give?
Answer: < 10 µM

Question: For c1ccc(C2C3CCc4ccccc4C32)nc1 (centres undefined), which IC50 [1] is on record?
Answer: < 10 µM

Question: O=C1/C(=C/c2cncs2)CCc2ccccc21 was tested. Which IC50 [1] did it give?
Answer: 21 µM

Question: c1cncc(C2C3CCc4ccccc4C32)c1 (centres undefined) was tested. Which IC50 [1] did it give?
Answer: 87 µM

Question: How did the IC50 [1] turn out when O=C1/C(=C/c2cccnc2)CCc2ccccc21 was run?
Answer: 48 µM

Question: For O=C1/C(=C/c2cccnn2)CCc2ccccc21, which IC50 [1] is on record?
Answer: < 10 µM

Question: O=C1c2ccccc2CCC1C(O)c1ccncn1 (centres undefined) was tested. Which IC50 [1] did it give?
Answer: < 10 µM
